The values below come from patent publication US20080107757A1, “Sophorae Subprostratae Radix Extract for Prevention and Treatment of Respiratory Diseases” (priority 2004, published 2008).

For one assay, the system named is guinea pig. Description: Antitussive effect, citric acid aerosol-induced cough. In kind it is in vivo. Here is the method: The method used was the method by M. H. Boskabady et al. (journal of Entnopharmacology 97, 2005, 79-82) with a bit of modifications.
A Hartley male guinea pig (450˜500 g, SLC, Japan) was orally administered with a drug. 1 hr after the administration, the guinea pig was placed in Double Chamber Plethysmograph Box (HSE, Germany) installed with plethysmometer and stabilized by allowing a 5 min of time for adaptation. After the stabilization, 0.6M citric acid was sprayed to the guinea pig for 7 min in the form of aerosol by preparing a compressed air under high pressure. The guinea pig was observed continuously by a trained observer and the number of coughs induced by the above spray of citric acid aerosol was measured by using a microphone and a speaker. The coughs were distinguished from a normal sneeze due to its particular signs such as a peculiar and high sound with its mouth open, movement of abdomen, and an instant change in air flow.

Assay [1] deals with Phosphodiesterase 4 (PDE4). Description: Inhibition of phosphodiesterase 4 (PDE4) activity, human U937 cells, [3H]cAMP. Format: biochemical. The conditions noted are these: positive control. Here is the method: Human U937 cells were stabilized in the mixed solution comprising 50 mM Tris-HCl and 5 mM MgCl2 (pH 7.5) at 25° C. Sophorae Radix extract and 1.01 μM of ([3H]cAMP+cAMP) as a base material were combined together and allowed to react for 20 min to produce adenosine.

A further assay has as its system sensitized guinea pig. Put plainly: Inhibition of airway contraction (in vivo), OVA aerosol bronchospasm, airway resistance by plethysmograph. Here is the method:
To evaluate the inhibitory effect of Sophorae Radix extract prepared in Preparation Examples 1-3 against airway contraction, experiments were performed as described below by exposing antigens to a sensitized guinea pig and the results are shown in Table 2.
A Hartely male guinea pig(400-450 g, SLC, Japan) was sensitized by intravenously injecting 1.5 mL/kg of anti-ovalbumin anti-serum. 48 hrs after the sensitization, the guinea pig was administered with a drug orally. In 30 min, the guinea pig was pretreated by injecting 10 mg/kg of pyrilamine maleate, 10 mg/kg of indomethacin, and 0.1 mg/kg of propranolol subcutaneously, respectively. Then, the guinea pig was placed in Double Chamber Plethysmograph Box(HSE, Germany) installed with plethysmometer for measuring various respiratory indices and measured basic airway resistance values. 30 min after the pretreatment, 1% OVA was nebulized for 2 min in the form of aerosol by preparing a compressed air under high pressure. Airway resistance was measured for 30 min as an indicator of bronchospasm.

With `COc1ccc2c(c1)[C@]13CCCC[C@@H]1[C@H](C2)N(C)CC3` [Dextromethorphan], the Cough in the assay on guinea pig (50 mg/kg oral) was 11.1 ± 2.5 (N = 7); with guinea pig (100 mg/kg oral), 4.5 ± 2.6 (N = 10). Further, the “Inhibition (%) of cough” value in the assay with guinea pig (50 mg/kg oral) turned out to be 9%; in the assay on guinea pig (100 mg/kg oral), 63%.

A word on the IC50: it is the point on the concentration scale where inhibition reaches its midpoint. The low end stands for greater potency in that assay, the high end for weaker potency in that assay. In assay [1], `CC(C)Cn1c(=O)n(C)c(=O)c2[nH]cnc21` [IBMX, 3-isobutyl-1-methylxanthine] gave an IC50 of 20.7 µM.

With `CC(C)(O)c1ccccc1CC[C@@H](SCC1(CC(=O)O)CC1)c1cccc(/C=C/c2ccc3ccc(Cl)cc3n2)c1` [Montelukast], the “Inhibition Rate of Bronchospasm (%)” value in the assay with sensitized guinea pig (10 mg/kg oral) was determined as 45%; in the assay on sensitized guinea pig (40 mg/kg oral), 75%. Further, the Cough in the assay with guinea pig (10 mg/kg oral) is recorded as 11.1 ± 2.9 (N = 9); with guinea pig (40 mg/kg oral), 11.4 ± 4.3 (N = 7). The “Inhibition (%) of cough” value in the assay with guinea pig (10 mg/kg oral) was 10%; in the assay on guinea pig (40 mg/kg oral) it was 7%.
